{"source": "patent US9725490B2", "about": "“ERAP1-derived peptide and use thereof” (TOKUSHIMA UNIVERSITY, priority 2011, dated 2017)", "format_in_all_cases": "cell-based, human", "key": {"[1]": {"system": "ERα interaction with IGF-1Rβ, Shc, PI3K; Akt and MAPK phosphorylation", "assay": "Non-genomic activation route, immunoprecipitation/immunoblotting, MCF-7", "procedure": "MCF-7 cells were treated with the ERAP1-peptide. Then, immediately, the cells were stimulated with 10 nM E2 for 24 hours. Then, the cytoplasm fraction was immunoprecipitated with anti-ERα antibody. […] MCF-7 cells were treated with the ERAP1-peptide. Then, immediately, the cells were stimulated with 10 nM E2 for 24 hours. Then the cytoplasm fraction was immunoprecipitated with anti-ERα antibody or anti-PHB2 antibody.\nFIG. 10-2 is a diagram illustrating that the ERAP1-peptide regulates E2-induced non-genomic activation route via IGF-1Rβ and Shc. […] BT-474 cells were treated with the ERAP1-peptide and/or E2 for 24 hours. Then, the cytoplasm fraction was immunoprecipitated with anti-ERα antibody.\nAs described in the item of “Western blotting analysis”, the cells were lysed with a 0.1% NP-40 lysis buffer. The cell lysate was precleaned using normal IgG and rec-Protein G Sepharose 4B (Zymed, San Francisco, Calif., USA) at 4° C. for 3 hours. After centrifuge separation, the supernatant was incubated in the presence of an anti-ERAP1 antibody, an anti-PHB2 antibody and an anti-ERα antibody at 4° C. for 6 hours. Then, the supernatant was incubated in the presence of rec-Protein G Sepharose 4B at 4° C. for 1 hour, to precipitate an antigen-antibody complex. The immunoprecipitated protein complex was washed with a lysis buffer three times, and separated by SDS-PAGE. Then, Western blotting analysis was performed by the method described previously (Kim J W, et al. Cancer Sci. 2009; 100: 1468-78.)."}, "ERα": {"system": "ERα", "assay": "ERα down-regulation and polyubiquitination in MCF-7 cells", "procedure": "FIG. 4-5 is a diagram illustrating that the ERAP1-peptide promotes nuclear translocation of PHB2. […] Then, the protein level and the mRNA level for the expression of ERα were obtained by Western blotting (the upper panel: Protein) and semi-quantitative RT-PCR (the lower panel: mRNA), respectively. β-actin is a loading control for each. […] MCF-7 cells were treated with the ERAP1-peptide and/or E2 in the presence of 1 μM MG-132 for 1 hour. Then, the cell lysate was immunoprecipitated with anti-ERα antibody.\nDown-regulation of ERα was evaluated by semi-quantitative reverse transcription PCR. Complete RNA was extracted using RNeasy Mini purification kit (Qiagen) from E2-treated cells in the presence or in the absence of the ERAP1 peptide, and reverse-transcribed into cDNA using Superscript II reverse transcriptase (Invitrogen), oligo dT primer (nvitrogen) and 25 mM dNTP Mixture (Invitrogen). mRNAs of ERα and β-actin were measured with GeneAmp PCR system (Applied Biosystems, Foster, Calif., USA). The primers are as described below: […]"}, "ERα phosphorylation": {"system": "ERα phosphorylation", "assay": "E2-induced ERα phosphorylation, Western blotting, KPL-3C and BT-474", "conditions": "KPL-3C and BT-474 cells", "procedure": "FIG. 9-2 is a diagram illustrating that ERAP1-peptide treatment suppresses the non-genomic activation route. […] The cells (C and D) or BT474 cells (E) Were treated with the ERAP1-peptide. Then, the phosphorylation levels of Akt (C). MAPK (C) and ERα (D and E) were evaluated with Western blotting. The relative phosphorylation levels were quantified by densitometry analysis, and the ratio to the value at 0 hour for non-treated cells was calculated."}}}
{"smiles": "CSCC[C@H](NC(=O)[C@H](CCC(N)=O)NC(=O)[C@H](CCCNC(=N)N)NC(=O)[C@H](CCCNC(=N)N)NC(=O)[C@H](CCCNC(=N)N)NC(=O)[C@H](CCCNC(=N)N)NC(=O)[C@H](CCCNC(=N)N)NC(=O)[C@H](CCCNC(=N)N)NC(=O)[C@H](CCCNC(=N)N)NC(=O)[C@H](CCCNC(=N)N)NC(=O)[C@H](CCCNC(=N)N)NC(=O)[C@H](CCCNC(=N)N)NC(=O)[C@@H](N)CCCNC(=N)N)C(=O)N[C@@H](CC(C)C)C(=O)N[C@@H](CO)C(=O)N[C@@H](CC(=O)O)C(=O)N[C@@H](CC(C)C)C(=O)N[C@H](C(=O)N[C@@H](CC(C)C)C(=O)N[C@@H](CCC(N)=O)C(=O)N[C@@H](CC(C)C)C(=O)N[C@@H](CCCNC(=N)N)C(=O)N[C@@H](CCC(N)=O)C(=O)N[C@@H](CCCNC(=N)N)C(=O)O)[C@@H](C)O", "note": "[ERAP1-peptide]", "values": [{"measurement": "binding of ERα and PI3K", "setting": "[1]; cytoplasm fraction, 24 hours", "value": "inhibit the binding of ERα and PI3K"}, {"measurement": "binding of ERα and Shc and of ERα and IGF-1Rβ", "setting": "[1]; cytoplasm fraction, 24 hours", "value": "inhibited the binding of ERα and Shc and the binding of ERα and IGF-1Rβ"}, {"measurement": "phosphorylation of Ser473 of Akt and phosphorylation of MAPK", "setting": "[1]; time course to 24 hours", "value": "inhibited respectively within 3 hours after addition of the ERAP1-peptide, and the suppression was maintained even after 24 hours"}, {"measurement": "decrease in the protein level of ERα after estrogen", "setting": "ERα; MCF-7", "value": "the decrease thereof was suppressed"}, {"measurement": "polyubiquitination of ERα", "setting": "ERα; MCF-7, E2, in the presence of MG132", "value": "polyubiquitination of ERα was inhibited"}, {"measurement": "E2-dependent phosphorylation of ERα sites", "setting": "ERα phosphorylation", "value": "E2-dependent phosphorylation in all of the sites was suppressed"}]}
